The NIST ThermoML archive (doi:10.1016/j.jct.2006.07.018)
Numbers after ± are expanded uncertainties.

Test: mn = molality of the nth substance listed, in mol/kg
Details: 350 kPa, Liquid, Vibrating tube method

`CSCC[C@H](N)C(=O)O` [L-methionine] + O showed a mass density (278.15 K, m1 = 0.0125) of 1000.87 ± 0.06 kg/m3, a mass density (278.15 K, m1 = 0.025) of 1001.33 ± 0.06 kg/m3 and a mass density (278.15 K, m1 = 0.05) of 1002.43 ± 0.07 kg/m3. The mass density (278.15 K, m1 = 0.0997) was 1005.13 ± 0.07 kg/m3, the mass density (278.15 K, m1 = 0.1501) was 1007.08 ± 0.06 kg/m3 and the mass density (278.15 K, m1 = 0.1929) was 1008.66 ± 0.06 kg/m3. It also gave a mass density (283.15 K, m1 = 0.0125) of 1000.6 ± 0.06 kg/m3, a mass density (283.15 K, m1 = 0.025) of 1001.06 ± 0.06 kg/m3 and a mass density (283.15 K, m1 = 0.05) of 1002.07 ± 0.07 kg/m3. It also gave a mass density (283.15 K, m1 = 0.0997) of 1004.77 ± 0.07 kg/m3, a mass density (283.15 K, m1 = 0.1501) of 1006.7 ± 0.06 kg/m3 and a mass density (283.15 K, m1 = 0.1929) of 1008.25 ± 0.06 kg/m3. For the same compound, the mass density (288.15 K, m1 = 0.0125) was 999.97 ± 0.07 kg/m3, the mass density (288.15 K, m1 = 0.025) was 1000.44 ± 0.06 kg/m3 and the mass density (288.15 K, m1 = 0.05) was 1001.43 ± 0.07 kg/m3. For the same compound, the mass density (288.15 K, m1 = 0.0997) was 1004.07 ± 0.06 kg/m3, the mass density (288.15 K, m1 = 0.1501) was 1005.97 ± 0.06 kg/m3 and the mass density (288.15 K, m1 = 0.1929) was 1007.5 ± 0.06 kg/m3. For the same compound, the mass density (298.15 K, m1 = 0.0125) was 997.89 ± 0.08 kg/m3, the mass density (298.15 K, m1 = 0.025) was 998.35 ± 0.06 kg/m3 and the mass density (298.15 K, m1 = 0.05) was 999.32 ± 0.07 kg/m3. For the same compound, the mass density (298.15 K, m1 = 0.0997) was 1001.89 ± 0.06 kg/m3, the mass density (298.15 K, m1 = 0.1501) was 1003.72 ± 0.06 kg/m3 and the mass density (298.15 K, m1 = 0.1929) was 1005.21 ± 0.06 kg/m3. The mass density (308.15 K, m1 = 0.0125) was 994.85 ± 0.08 kg/m3, the mass density (308.15 K, m1 = 0.025) was 995.32 ± 0.06 kg/m3 and the mass density (308.15 K, m1 = 0.05) was 996.3 ± 0.07 kg/m3. For the same compound, the mass density (308.15 K, m1 = 0.0997) was 998.76 ± 0.06 kg/m3, the mass density (308.15 K, m1 = 0.1501) was 1000.54 ± 0.06 kg/m3 and the mass density (308.15 K, m1 = 0.1929) was 1002.01 ± 0.06 kg/m3. For the same compound, the mass density (318.15 K, m1 = 0.0125) was 991.01 ± 0.08 kg/m3, the mass density (318.15 K, m1 = 0.025) was 991.47 ± 0.06 kg/m3 and the mass density (318.15 K, m1 = 0.05) was 992.35 ± 0.07 kg/m3. It also gave a mass density (318.15 K, m1 = 0.0997) of 994.85 ± 0.07 kg/m3, a mass density (318.15 K, m1 = 0.1501) of 996.62 ± 0.06 kg/m3 and a mass density (318.15 K, m1 = 0.1929) of 998.08 ± 0.06 kg/m3. The mass density (328.15 K, m1 = 0.0125) was 986.48 ± 0.08 kg/m3, the mass density (328.15 K, m1 = 0.025) was 986.94 ± 0.07 kg/m3 and the mass density (328.15 K, m1 = 0.05) was 987.79 ± 0.07 kg/m3. For the same compound, the mass density (328.15 K, m1 = 0.0997) was 990.26 ± 0.07 kg/m3, the mass density (328.15 K, m1 = 0.1501) was 992 ± 0.06 kg/m3 and the mass density (328.15 K, m1 = 0.1929) was 993.45 ± 0.06 kg/m3. For the same compound, the mass density (338.15 K, m1 = 0.0125) was 981.32 ± 0.08 kg/m3, the mass density (338.15 K, m1 = 0.025) was 981.79 ± 0.07 kg/m3 and the mass density (338.15 K, m1 = 0.05) was 982.66 ± 0.07 kg/m3. It also gave a mass density (338.15 K, m1 = 0.0997) of 985.05 ± 0.07 kg/m3, a mass density (338.15 K, m1 = 0.1501) of 986.79 ± 0.07 kg/m3 and a mass density (338.15 K, m1 = 0.1929) of 988.23 ± 0.06 kg/m3. For the same compound, the mass density (348.15 K, m1 = 0.0125) was 975.6 ± 0.08 kg/m3, the mass density (348.15 K, m1 = 0.025) was 976.09 ± 0.07 kg/m3 and the mass density (348.15 K, m1 = 0.05) was 976.97 ± 0.08 kg/m3. The mass density (348.15 K, m1 = 0.0997) was 979.29 ± 0.07 kg/m3, the mass density (348.15 K, m1 = 0.1501) was 981.03 ± 0.07 kg/m3 and the mass density (348.15 K, m1 = 0.1929) was 982.49 ± 0.07 kg/m3. For the same compound, the mass density (358.15 K, m1 = 0.0125) was 969.38 ± 0.08 kg/m3, the mass density (358.15 K, m1 = 0.025) was 969.84 ± 0.08 kg/m3 and the mass density (358.15 K, m1 = 0.05) was 970.77 ± 0.08 kg/m3. For the same compound, the mass density (358.15 K, m1 = 0.0997) was 973.02 ± 0.08 kg/m3, the mass density (358.15 K, m1 = 0.1501) was 974.79 ± 0.07 kg/m3 and the mass density (358.15 K, m1 = 0.1929) was 976.26 ± 0.07 kg/m3. The mass density (368.15 K, m1 = 0.0125) was 962.63 ± 0.08 kg/m3, the mass density (368.15 K, m1 = 0.025) was 963.11 ± 0.08 kg/m3 and the mass density (368.15 K, m1 = 0.05) was 964.09 ± 0.08 kg/m3. The mass density (368.15 K, m1 = 0.0997) was 966.29 ± 0.08 kg/m3, the mass density (368.15 K, m1 = 0.1501) was 968.05 ± 0.08 kg/m3 and the mass density (368.15 K, m1 = 0.1929) was 969.51 ± 0.08 kg/m3.
